Like-named read-outs stand apart in the source and are kept apart here.
Assays:
Assay in all cases: DiscoverX KINOMEscan kinase profiling (468 assays)
Assay type in all cases: binding
human kinome [1] = target: human kinome (Homo sapiens, UniProt O14965); conditions: AURKA; 100 nM; read-out: Percent Control
Outline: (§1)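 VIP152 was run in DMSO, alongside a DMSO control. Readout was qPCR of DNA-tagged kinase still bound to bead-immobilized biotinylated kinase ligands after compound competition.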

human kinome [2] = target: human kinome (Homo sapiens, UniProt O60674); conditions: JAK2(JH1domain-catalytic); 100 nM; read-out: Percent Control
Outline: as §1

human kinome [3] = target: human kinome (Homo sapiens, UniProt O76039); conditions: CDKL5; 100 nM; read-out: Percent Control
Outline: as §1

human kinome [4] = target: human kinome (Homo sapiens, UniProt O94806); conditions: read-out: Percent Control
Sequence of human kinome (Homo sapiens, UniProt O94806) (O94806 whole entry): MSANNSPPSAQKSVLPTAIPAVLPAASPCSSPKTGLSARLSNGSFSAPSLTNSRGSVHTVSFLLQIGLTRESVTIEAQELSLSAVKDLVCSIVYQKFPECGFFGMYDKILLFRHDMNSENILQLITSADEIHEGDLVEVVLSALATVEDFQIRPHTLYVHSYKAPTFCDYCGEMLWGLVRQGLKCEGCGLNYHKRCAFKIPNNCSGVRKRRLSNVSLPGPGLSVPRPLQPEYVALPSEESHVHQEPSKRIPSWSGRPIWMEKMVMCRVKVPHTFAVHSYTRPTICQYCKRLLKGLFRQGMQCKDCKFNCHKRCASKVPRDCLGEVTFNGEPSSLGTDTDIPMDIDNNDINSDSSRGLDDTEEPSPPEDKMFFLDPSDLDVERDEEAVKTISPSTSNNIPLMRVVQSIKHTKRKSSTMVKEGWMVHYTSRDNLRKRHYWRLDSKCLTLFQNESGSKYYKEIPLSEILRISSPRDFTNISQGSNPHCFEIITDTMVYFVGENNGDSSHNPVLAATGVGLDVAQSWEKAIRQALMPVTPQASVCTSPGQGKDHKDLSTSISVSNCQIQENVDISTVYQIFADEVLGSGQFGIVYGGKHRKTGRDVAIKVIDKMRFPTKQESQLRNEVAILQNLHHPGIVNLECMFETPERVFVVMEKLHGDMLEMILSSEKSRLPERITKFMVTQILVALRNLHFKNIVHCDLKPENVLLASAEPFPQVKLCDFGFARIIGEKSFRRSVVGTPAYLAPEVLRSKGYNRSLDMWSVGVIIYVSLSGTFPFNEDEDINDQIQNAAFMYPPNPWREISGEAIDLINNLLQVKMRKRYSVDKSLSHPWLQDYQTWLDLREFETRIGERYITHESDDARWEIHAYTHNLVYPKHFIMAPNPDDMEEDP
Outline: as §1

human kinome [5] = target: human kinome (Homo sapiens, UniProt O95819); conditions: MAP4K4; 100 nM; read-out: Percent Control
Outline: as §1

human kinome [6] = target: human kinome (Homo sapiens, UniProt P07332); conditions: FES; 100 nM; read-out: Percent Control
Outline: as §1

human kinome [7] = target: human kinome (Homo sapiens, UniProt P10721); conditions: 100 nM, read-out: Percent Control
Sequence of human kinome (Homo sapiens, UniProt P10721) (P10721 26-976): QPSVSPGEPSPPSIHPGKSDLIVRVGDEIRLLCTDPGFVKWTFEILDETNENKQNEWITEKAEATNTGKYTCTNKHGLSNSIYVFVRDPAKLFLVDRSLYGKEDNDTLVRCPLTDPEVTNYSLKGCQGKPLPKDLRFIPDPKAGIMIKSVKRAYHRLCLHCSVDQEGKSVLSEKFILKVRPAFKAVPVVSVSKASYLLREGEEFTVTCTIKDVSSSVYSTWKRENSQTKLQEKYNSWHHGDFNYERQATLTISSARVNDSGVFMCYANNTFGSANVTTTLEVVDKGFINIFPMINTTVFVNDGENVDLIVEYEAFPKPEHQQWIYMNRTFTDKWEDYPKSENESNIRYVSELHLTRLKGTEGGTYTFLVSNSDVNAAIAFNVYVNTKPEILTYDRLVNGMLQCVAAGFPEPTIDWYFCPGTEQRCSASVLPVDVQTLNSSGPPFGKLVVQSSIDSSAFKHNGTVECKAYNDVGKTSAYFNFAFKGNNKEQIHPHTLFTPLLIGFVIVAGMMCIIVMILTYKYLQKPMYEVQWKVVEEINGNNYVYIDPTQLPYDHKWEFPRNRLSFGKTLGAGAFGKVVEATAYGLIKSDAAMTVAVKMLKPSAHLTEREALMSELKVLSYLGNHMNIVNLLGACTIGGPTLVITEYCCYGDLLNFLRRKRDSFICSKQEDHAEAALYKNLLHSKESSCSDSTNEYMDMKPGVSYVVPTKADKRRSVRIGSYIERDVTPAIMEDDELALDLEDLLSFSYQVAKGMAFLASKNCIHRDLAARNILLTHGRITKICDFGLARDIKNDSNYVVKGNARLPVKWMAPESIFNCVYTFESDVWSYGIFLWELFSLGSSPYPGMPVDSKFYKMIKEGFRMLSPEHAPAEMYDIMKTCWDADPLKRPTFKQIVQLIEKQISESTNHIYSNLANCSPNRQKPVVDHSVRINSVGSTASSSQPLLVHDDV
Outline: as §1

human kinome [8] = target: human kinome (Homo sapiens, UniProt P10721, D816H); conditions: KIT(D816H); 100 nM; read-out: Percent Control
Sequence of human kinome (Homo sapiens, UniProt P10721, D816H) (P10721 26-976 D816H): as the sequence (P10721 26-976) above, with D791H counted along it
Outline: as §1

human kinome [9] = target: human kinome (Homo sapiens, UniProt P16591); conditions: FER; 100 nM; read-out: Percent Control
Outline: as §1

human kinome [10] = target: human kinome (Homo sapiens, UniProt P19784); conditions: CSNK2A2; 100 nM; read-out: Percent Control
Sequence of human kinome (Homo sapiens, UniProt P19784) (P19784 whole entry): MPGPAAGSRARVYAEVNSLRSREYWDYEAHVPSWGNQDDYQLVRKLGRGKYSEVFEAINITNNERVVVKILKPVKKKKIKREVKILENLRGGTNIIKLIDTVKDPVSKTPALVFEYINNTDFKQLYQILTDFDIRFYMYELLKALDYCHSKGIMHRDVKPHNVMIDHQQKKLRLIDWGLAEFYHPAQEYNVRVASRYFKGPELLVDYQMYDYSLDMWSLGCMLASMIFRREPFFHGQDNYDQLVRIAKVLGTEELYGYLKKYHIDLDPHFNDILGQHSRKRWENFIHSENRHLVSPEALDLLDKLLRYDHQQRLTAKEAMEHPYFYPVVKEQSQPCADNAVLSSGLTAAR
Outline: as §1

human kinome [11] = target: human kinome (Homo sapiens, UniProt P29597); conditions: compound concentration 1000 nM, read-out: Percent Control
Sequence of human kinome (Homo sapiens, UniProt P29597) (P29597 whole entry): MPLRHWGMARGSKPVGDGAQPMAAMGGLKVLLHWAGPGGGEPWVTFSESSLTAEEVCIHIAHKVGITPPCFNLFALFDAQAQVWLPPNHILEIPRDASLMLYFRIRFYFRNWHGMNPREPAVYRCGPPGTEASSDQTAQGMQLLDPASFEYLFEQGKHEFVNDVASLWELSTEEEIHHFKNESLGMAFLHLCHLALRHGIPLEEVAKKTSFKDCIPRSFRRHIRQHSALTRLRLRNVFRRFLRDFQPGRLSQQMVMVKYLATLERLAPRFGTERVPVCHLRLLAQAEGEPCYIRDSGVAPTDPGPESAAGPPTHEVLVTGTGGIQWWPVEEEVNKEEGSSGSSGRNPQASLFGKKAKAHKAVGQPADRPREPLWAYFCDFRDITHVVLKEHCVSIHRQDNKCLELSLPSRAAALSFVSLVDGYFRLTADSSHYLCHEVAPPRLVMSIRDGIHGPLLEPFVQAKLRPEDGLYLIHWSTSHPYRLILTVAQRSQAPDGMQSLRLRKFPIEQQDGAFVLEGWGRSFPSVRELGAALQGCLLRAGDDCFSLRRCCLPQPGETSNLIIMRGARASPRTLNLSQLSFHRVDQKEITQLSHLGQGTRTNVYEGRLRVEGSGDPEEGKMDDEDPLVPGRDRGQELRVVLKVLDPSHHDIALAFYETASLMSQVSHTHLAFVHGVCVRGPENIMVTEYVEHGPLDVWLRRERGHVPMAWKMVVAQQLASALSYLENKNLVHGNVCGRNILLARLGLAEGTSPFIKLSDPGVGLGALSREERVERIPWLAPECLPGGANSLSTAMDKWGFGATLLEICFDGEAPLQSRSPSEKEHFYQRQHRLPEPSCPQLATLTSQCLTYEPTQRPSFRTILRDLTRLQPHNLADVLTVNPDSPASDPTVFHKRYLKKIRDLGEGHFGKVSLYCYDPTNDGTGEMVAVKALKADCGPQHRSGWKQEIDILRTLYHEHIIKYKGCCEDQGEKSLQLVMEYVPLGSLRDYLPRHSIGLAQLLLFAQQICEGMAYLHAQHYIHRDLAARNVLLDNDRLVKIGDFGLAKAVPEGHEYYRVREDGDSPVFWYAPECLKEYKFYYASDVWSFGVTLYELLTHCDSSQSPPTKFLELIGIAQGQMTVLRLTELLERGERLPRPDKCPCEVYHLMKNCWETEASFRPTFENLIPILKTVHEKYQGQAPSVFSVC
Outline: as §1

human kinome [12] = target: human kinome (Homo sapiens, UniProt P35968); conditions: kinase VEGFR2 (Entrez KDR); compound concentration 1000 nM; read-out: Percent Control
Outline: as §1

human kinome [13] = target: human kinome (Homo sapiens, UniProt P36888, N841I); conditions: FLT3(N841I); 100 nM; read-out: Percent Control
Outline: as §1

human kinome [14] = target: human kinome (Homo sapiens, UniProt P36897); conditions: kinase TGFBR1 (Entrez TGFBR1); compound concentration 1000 nM; read-out: Percent Control
Outline: as §1

human kinome [15] = target: human kinome (Homo sapiens, UniProt P43405); conditions: kinase SYK (Entrez SYK); compound concentration 1000 nM; read-out: Percent Control
Outline: as §1

human kinome [16] = target: human kinome (Homo sapiens, UniProt P46734); conditions: MEK3 (Entrez MAP2K3); 100 nM; read-out: Percent Control
Outline: as §1

human kinome [17] = target: human kinome (Homo sapiens, UniProt P51813); conditions: BMX; 100 nM; read-out: Percent Control
Outline: as §1

human kinome [18] = target: human kinome (Homo sapiens, UniProt P54760); conditions: EPHB4; 100 nM; read-out: Percent Control
Outline: as §1

human kinome [19] = target: human kinome (Homo sapiens, UniProt Q13557); conditions: CAMK2D; 100 nM; read-out: Percent Control
Outline: as §1

human kinome [20] = target: human kinome (Homo sapiens, UniProt Q13705); conditions: ACVR2B; 100 nM; read-out: Percent Control
Outline: as §1

human kinome [21] = target: human kinome (Homo sapiens, UniProt Q13882); conditions: BRK (Entrez PTK6); 100 nM; read-out: Percent Control
Outline: as §1

human kinome [22] = target: human kinome (Homo sapiens, UniProt Q8N568); conditions: DCAMKL2 (Entrez DCLK2); 100 nM; read-out: Percent Control
Outline: as §1

human kinome [23] = target: human kinome (Homo sapiens, UniProt Q8TDR2); conditions: kinase STK35 (Entrez STK35); compound concentration 1000 nM; read-out: Percent Control
Outline: as §1

human kinome [24] = target: human kinome (Homo sapiens, UniProt Q96Q40); conditions: read-out: Percent Control
Sequence of human kinome (Homo sapiens, UniProt Q96Q40) (Q96Q40 whole entry): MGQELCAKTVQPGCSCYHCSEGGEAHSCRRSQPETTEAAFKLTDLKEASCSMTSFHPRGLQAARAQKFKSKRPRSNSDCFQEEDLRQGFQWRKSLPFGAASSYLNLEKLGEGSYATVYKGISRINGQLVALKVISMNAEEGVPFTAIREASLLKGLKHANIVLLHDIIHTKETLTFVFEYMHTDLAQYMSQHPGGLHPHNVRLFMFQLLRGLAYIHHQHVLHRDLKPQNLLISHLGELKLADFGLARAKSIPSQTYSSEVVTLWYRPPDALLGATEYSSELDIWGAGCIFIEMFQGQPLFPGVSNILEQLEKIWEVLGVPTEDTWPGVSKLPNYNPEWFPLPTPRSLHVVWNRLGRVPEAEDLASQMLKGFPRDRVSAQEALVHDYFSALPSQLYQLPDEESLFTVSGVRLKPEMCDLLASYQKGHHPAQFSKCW
Outline: as §1

human kinome [25] = target: human kinome (Homo sapiens, UniProt Q96RR4); conditions: CAMKK2; 100 nM; read-out: Percent Control
Outline: as §1

human kinome [26] = target: human kinome (Homo sapiens, UniProt Q9HBH9); conditions: MKNK2; 100 nM; read-out: Percent Control
Outline: as §1

human kinome [27] = target: human kinome (Homo sapiens, UniProt Q9HCP0); conditions: CSNK1G1; 100 nM; read-out: Percent Control
Outline: as §1

human kinome [28] = target: human kinome (Homo sapiens, UniProt Q9NYY3); conditions: read-out: Percent Control
Sequence of human kinome (Homo sapiens, UniProt Q9NYY3) (Q9NYY3 whole entry): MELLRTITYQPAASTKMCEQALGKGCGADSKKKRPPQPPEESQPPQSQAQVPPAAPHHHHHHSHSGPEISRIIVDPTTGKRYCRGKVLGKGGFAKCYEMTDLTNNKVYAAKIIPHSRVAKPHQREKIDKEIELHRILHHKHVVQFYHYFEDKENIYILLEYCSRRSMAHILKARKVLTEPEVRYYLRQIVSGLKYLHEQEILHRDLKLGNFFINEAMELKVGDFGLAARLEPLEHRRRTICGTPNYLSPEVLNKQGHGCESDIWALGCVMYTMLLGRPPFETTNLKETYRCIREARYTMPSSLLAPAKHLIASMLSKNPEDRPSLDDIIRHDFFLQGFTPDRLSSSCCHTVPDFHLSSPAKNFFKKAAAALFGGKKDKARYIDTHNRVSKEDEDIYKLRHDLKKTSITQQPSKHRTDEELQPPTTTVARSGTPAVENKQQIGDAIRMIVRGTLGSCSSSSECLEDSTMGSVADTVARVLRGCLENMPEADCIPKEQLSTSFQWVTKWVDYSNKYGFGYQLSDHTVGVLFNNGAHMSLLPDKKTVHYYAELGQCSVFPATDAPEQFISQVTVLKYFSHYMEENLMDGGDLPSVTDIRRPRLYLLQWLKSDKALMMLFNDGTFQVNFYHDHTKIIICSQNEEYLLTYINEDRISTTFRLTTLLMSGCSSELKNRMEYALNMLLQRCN
Outline: as §1

human kinome [29] = target: human kinome (Homo sapiens, UniProt Q9P0L2); conditions: MARK1; 100 nM; read-out: Percent Control
Outline: as §1

human kinome [30] = target: human kinome (Homo sapiens, UniProt Q9UF33); conditions: EPHA6; 100 nM; read-out: Percent Control
Outline: as §1

Sequence of human kinome (Homo sapiens, UniProt O14965) (O14965 whole entry): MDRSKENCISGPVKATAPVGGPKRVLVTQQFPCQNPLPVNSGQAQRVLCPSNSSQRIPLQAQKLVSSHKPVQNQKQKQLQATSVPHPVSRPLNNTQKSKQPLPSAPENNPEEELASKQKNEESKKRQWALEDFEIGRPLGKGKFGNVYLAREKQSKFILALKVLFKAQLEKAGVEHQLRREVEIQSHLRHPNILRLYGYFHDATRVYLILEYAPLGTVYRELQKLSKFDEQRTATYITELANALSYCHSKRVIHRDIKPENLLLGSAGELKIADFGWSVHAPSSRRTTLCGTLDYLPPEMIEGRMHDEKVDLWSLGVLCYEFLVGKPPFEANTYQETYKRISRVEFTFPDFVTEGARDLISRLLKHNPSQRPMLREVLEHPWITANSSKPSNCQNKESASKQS

In the case of COc1cc(F)ccc1-c1cc(Nc2cc(CS(C)(=N)=O)ccn2)ncc1F (centres unmarked) [VIP152], the remaining binding at 0.1 µM (human kinome [1]) is reported as 100%, the remaining binding at 0.1 µM (human kinome [2]) is reported as 100% and the remaining binding at 0.1 µM (human kinome [3]) is reported as 100%. It also gave a remaining binding at 0.1 µM (human kinome [4]; PRKD3, 100 nM) of 91%, a remaining binding at 1 µM (human kinome [4]; kinase PRKD3 (Entrez PRKD3), compound concentration 1000 nM) of 100% and a remaining binding at 0.1 µM (human kinome [5]) of 73%. The remaining binding at 0.1 µM (human kinome [6]) was 100%, the remaining binding at 0.1 µM (human kinome [7]; KIT-autoinhibited) was 98% and the remaining binding at 0.1 µM (human kinome [7]; KIT) was 100%. The remaining binding at 0.1 µM (human kinome [8]) was 100%, the remaining binding at 0.1 µM (human kinome [9]) was 100% and the remaining binding at 0.1 µM (human kinome [10]) was 100%. It also gave a remaining binding at 1 µM (human kinome [11]; kinase TYK2(JH1domain-catalytic) (Entrez TYK2)) of 44%, a remaining binding at 1 µM (human kinome [11]; kinase TYK2(JH2domain-pseudokinase) (Entrez TYK2)) of 4.8% and a remaining binding at 1 µM (human kinome [12]) of 55%. For the same molecule, the remaining binding at 0.1 µM (human kinome [13]) was 66%, the remaining binding at 1 µM (human kinome [14]) was 91% and the remaining binding at 1 µM (human kinome [15]) was 38%. For the same molecule, the remaining binding at 0.1 µM (human kinome [16]) was 100%, the remaining binding at 0.1 µM (human kinome [17]) was 100% and the remaining binding at 0.1 µM (human kinome [18]) was 100%. The remaining binding at 0.1 µM (human kinome [19]) was 100%, the remaining binding at 0.1 µM (human kinome [20]) was 89% and the remaining binding at 0.1 µM (human kinome [21]) was 100%. For the same molecule, the remaining binding at 0.1 µM (human kinome [22]) was 100%, the remaining binding at 1 µM (human kinome [23]) was 95% and the remaining binding at 0.1 µM (human kinome [24]; PFTAIRE2 (Entrez CDK15), 100 nM) was 100%. The remaining binding at 1 µM (human kinome [24]; kinase PFTAIRE2 (Entrez CDK15), compound concentration 1000 nM) was 70%, the remaining binding at 0.1 µM (human kinome [25]) was 92% and the remaining binding at 0.1 µM (human kinome [26]) was 95%. For the same molecule, the remaining binding at 0.1 µM (human kinome [27]) was 100%, the remaining binding at 0.1 µM (human kinome [28]; PLK2, 100 nM) was 100% and the remaining binding at 1 µM (human kinome [28]; kinase PLK2 (Entrez PLK2), compound concentration 1000 nM) was 83%. For the same molecule, the remaining binding at 0.1 µM (human kinome [29]) was 82% and the remaining binding at 0.1 µM (human kinome [30]) was 100%.

Source: paper PMC9898036, “VIP152 is a selective CDK9 inhibitor with pre-clinical in vitro and in vivo efficacy in chronic lymphocytic leukemia” (Leukemia, 2022)
